Experimental data: PMC13088180, “Chemical Proteomics Reveal the Inventory of Pyrroloquinoline Quinone Binding Proteins in Bacteria” (Journal of the American Chemical Society, 2026)

Key:
YliI = molecular target: T1, YliI (Escherichia coli, UniProt P75804); assay: coupled colorimetric assay; assay type: biochemical; conditions: 100 nM enzyme reconstituted with PQQ, 1.25 M glucose
T1 construct: recombinant, purified cofactor-free; details only in supplement
T1 sequence (P75804 21-371): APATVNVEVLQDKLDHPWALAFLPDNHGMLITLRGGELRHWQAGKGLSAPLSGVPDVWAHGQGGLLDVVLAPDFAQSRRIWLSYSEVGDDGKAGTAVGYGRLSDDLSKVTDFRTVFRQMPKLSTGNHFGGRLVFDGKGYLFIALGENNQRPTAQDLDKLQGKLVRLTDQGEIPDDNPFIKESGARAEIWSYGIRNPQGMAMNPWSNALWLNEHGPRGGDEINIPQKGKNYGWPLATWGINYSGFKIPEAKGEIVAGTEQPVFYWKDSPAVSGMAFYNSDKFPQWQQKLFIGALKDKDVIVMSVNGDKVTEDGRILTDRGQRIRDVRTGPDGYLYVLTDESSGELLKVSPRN

RuvB = molecular target: T2, RuvB (Escherichia coli, UniProt P0A812); assay: UV/vis spectral shift; intact protein MS; MS/MS site mapping; assay type: binding; conditions: covalent; lysine K26 (main) and K46; 100 uM protein, 300 uM PQQ, 4 °C overnight
T2 construct: recombinant from E. coli BL21, purified without PQQ
T2 sequence (P0A812 1-336): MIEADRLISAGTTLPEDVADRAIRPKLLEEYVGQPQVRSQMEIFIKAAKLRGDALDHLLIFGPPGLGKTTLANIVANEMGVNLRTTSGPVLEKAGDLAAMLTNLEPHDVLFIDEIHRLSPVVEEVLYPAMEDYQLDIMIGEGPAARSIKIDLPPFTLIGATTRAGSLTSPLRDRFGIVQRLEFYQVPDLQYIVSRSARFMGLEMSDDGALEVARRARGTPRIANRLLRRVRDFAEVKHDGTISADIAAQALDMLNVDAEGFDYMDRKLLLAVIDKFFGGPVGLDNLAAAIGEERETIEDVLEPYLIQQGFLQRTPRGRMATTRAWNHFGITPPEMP

FklB = molecular target: T3, FklB (Escherichia coli, UniProt P0A9L3); assay: UV/vis spectral shift; competition of PQQ4 labelling; assay type: binding; conditions: no covalent adduct by intact protein MS
T3 construct: recombinant from E. coli BL21, purified without PQQ
T3 sequence (P0A9L3 2-206): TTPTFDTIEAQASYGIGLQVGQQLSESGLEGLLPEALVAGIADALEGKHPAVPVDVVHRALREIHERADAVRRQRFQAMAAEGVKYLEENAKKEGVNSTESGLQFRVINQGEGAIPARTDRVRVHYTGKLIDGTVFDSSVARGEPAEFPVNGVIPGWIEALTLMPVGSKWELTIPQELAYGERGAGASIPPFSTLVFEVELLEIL

Tig (trigger factor) = molecular target: T4, Tig (trigger factor) (Escherichia coli, UniProt P0A850); assay: UV/vis spectral shift; intact protein LC-MS; assay type: binding; conditions: covalent; 100 uM protein, 300 uM PQQ, 4 °C overnight
T4 construct: recombinant from E. coli BL21, purified without PQQ
T4 sequence (P0A850 1-432): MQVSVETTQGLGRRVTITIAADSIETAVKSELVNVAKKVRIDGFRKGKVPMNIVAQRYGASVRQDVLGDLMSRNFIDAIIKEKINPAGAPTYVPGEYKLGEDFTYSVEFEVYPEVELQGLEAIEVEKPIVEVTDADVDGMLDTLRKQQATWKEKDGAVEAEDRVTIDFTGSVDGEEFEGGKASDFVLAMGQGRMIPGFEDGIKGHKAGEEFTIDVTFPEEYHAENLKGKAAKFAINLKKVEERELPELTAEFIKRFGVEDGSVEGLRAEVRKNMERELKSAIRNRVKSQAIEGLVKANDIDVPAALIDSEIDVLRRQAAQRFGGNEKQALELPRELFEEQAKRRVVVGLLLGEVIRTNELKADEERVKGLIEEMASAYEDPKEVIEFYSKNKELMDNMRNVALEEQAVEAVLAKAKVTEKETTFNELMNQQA

HtpG = molecular target: T5, HtpG (Escherichia coli, UniProt P0A6Z3); assay: UV/vis spectral shift; intact protein LC-MS; assay type: binding; conditions: covalent; 100 uM protein, 300 uM PQQ, 4 °C overnight
T5 construct: recombinant from E. coli BL21, purified without PQQ; 73529 Da peak is a +135 Da adduct

[1] = molecular target: T6, MBP (maltose-binding protein) (Escherichia coli, UniProt P0AEX9); assay: UV/vis spectral shift; intact protein LC-MS; conditions: covalent; 100 uM protein, 300 uM PQQ, 4 °C overnight
T6 construct: gene malE; recombinant from E. coli BL21, purified without PQQ

[2] = molecular target: T7, 6PGD / 6GPD (6-phosphogluconate dehydrogenase, decarboxylating) (Escherichia coli, UniProt P00350); assay: MS/MS closed search of +310 Da on lysine; assay type: biochemical; conditions: covalent; E. coli K-12 lysate 3.5 mg/mL, 2000 uM PQQ, 2000 uM CaCl2, 37 °C, 4 h
T7 construct: gene gnd; endogenous protein in E. coli K-12 lysate
T7 sequence (P00350 1-468): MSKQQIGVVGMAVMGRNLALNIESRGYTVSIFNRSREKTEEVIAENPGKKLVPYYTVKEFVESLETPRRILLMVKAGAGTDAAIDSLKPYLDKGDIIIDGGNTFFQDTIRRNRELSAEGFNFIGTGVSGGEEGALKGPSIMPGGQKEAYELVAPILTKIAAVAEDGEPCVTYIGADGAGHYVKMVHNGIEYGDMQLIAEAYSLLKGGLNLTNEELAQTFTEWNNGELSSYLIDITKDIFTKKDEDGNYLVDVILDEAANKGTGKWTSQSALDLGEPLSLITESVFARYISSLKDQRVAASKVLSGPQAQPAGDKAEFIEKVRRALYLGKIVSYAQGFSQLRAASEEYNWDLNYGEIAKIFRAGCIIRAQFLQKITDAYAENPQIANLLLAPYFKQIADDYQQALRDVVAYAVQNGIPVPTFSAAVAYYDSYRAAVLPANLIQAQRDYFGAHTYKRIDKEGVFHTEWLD

PpiD = molecular target: T8, PpiD (Pseudomonas putida, UniProt Q88KI6); assay: UV/vis spectral shift; intact protein LC-MS; assay type: binding; conditions: covalent; 100 uM protein, 300 uM PQQ, 4 °C overnight
T8 construct: gene PP_2304; recombinant from E. coli BL21, purified without PQQ
T8 sequence (Q88KI6 36-623): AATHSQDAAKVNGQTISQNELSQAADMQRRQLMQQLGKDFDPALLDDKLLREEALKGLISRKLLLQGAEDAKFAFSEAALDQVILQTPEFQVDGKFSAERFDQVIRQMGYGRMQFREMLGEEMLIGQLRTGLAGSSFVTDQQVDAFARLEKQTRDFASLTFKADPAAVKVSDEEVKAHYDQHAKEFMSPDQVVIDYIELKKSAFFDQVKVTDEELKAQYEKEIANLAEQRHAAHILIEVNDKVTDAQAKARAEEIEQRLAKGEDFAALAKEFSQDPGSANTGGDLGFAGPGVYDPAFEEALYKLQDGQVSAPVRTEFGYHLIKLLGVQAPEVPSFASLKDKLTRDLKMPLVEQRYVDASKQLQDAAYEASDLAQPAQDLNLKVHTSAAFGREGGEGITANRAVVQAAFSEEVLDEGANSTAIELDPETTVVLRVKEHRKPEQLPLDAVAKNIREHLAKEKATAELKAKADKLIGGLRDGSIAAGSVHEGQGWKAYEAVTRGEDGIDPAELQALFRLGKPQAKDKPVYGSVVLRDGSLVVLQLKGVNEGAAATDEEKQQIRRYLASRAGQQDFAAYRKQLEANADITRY

SurA = molecular target: T9, SurA (Escherichia coli, UniProt P0ABZ6); assay: UV/vis spectral shift; intact protein LC-MS; assay type: binding; conditions: covalent; 100 uM protein, 300 uM PQQ, 4 °C overnight
T9 construct: recombinant from E. coli BL21, purified without PQQ
T9 sequence (P0ABZ6 21-428): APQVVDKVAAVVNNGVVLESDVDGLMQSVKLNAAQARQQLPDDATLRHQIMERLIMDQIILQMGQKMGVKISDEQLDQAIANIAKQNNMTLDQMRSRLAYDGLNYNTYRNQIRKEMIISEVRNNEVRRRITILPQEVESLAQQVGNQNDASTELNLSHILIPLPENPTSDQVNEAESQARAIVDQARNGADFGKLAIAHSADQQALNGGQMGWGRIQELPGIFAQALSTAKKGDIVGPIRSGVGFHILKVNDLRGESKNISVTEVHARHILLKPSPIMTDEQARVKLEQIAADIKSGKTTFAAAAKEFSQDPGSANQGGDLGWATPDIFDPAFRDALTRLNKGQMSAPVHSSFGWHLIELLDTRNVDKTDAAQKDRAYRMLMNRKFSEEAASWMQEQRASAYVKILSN

PedH = molecular target: T10, PedH (Pseudomonas putida, UniProt Q88JH0); conditions: 100 nM enzyme reconstituted with PQQ, 50 mM ethanol
T10 sequence (Q88JH0 28-595): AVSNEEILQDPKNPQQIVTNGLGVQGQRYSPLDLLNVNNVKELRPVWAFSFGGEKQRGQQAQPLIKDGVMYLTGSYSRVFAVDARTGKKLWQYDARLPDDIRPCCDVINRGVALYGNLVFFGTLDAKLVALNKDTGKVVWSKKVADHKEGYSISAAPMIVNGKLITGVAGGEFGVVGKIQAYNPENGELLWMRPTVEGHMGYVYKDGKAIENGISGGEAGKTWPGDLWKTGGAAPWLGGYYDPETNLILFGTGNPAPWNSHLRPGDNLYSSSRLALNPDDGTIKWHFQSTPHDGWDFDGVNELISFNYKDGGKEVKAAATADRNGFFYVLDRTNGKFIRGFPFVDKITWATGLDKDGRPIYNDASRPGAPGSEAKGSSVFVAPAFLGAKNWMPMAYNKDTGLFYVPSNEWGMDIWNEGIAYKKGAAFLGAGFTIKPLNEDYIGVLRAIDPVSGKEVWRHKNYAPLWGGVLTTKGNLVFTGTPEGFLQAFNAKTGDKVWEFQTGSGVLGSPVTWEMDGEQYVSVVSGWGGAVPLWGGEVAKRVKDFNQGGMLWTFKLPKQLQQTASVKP

T5 sequence (P0A6Z3 whole entry): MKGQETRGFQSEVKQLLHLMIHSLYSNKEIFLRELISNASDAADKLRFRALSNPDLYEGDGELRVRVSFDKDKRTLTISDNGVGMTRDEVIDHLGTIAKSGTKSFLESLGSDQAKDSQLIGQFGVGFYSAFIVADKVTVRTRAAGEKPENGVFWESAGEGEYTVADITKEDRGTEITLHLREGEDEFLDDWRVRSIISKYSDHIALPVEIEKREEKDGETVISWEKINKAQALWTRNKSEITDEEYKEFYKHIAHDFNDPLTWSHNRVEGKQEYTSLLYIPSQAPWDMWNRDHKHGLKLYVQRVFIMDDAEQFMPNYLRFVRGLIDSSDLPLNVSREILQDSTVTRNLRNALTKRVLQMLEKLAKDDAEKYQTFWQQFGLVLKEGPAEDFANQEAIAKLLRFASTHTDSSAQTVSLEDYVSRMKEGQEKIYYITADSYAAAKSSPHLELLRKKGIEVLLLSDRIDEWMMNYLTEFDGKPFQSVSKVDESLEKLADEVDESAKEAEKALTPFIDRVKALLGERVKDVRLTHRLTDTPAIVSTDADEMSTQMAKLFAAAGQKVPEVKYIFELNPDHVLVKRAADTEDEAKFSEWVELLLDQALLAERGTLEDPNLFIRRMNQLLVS

## OC[C@H]1OC(O)[C@H](O)[C@@H](O)[C@@H]1O (stereo partly shown) [glucose]
YliI
  coupled colorimetric assay: Glucose dehydrogenase activity of YliI reconstituted with PQQ or PQQ probes was measured

## O=C(O)c1cc(C(=O)O)c2c(n1)C(=O)C(=O)c1cc(C(=O)O)[nH]c1-2 [PQQ, Pyrroloquinoline quinone]
RuvB
  +310 Da mass shift: confirming K26 as the predominant covalent binding site
FklB
  UV/vis spectral shift; competition of PQQ4 labelling: addition of the cofactor revealed characteristic spectroscopic shifts comparable to those of YliI and PedH
Tig (trigger factor)
  +310 Da mass shift: covalent PQQ binding in the case of Tig, HtpG, MBP, RuvB, SurA, and PpiD
HtpG
  +310 Da mass shift: covalent PQQ binding in the case of Tig, HtpG, MBP, RuvB, SurA, and PpiD
[1]
  +310 Da mass shift: covalent PQQ binding in the case of Tig, HtpG, MBP, RuvB, SurA, and PpiD
[2]
  mass shift: confirmed Tig and 6GPD as covalent binding protein hits
PpiD
  +310 Da mass shift: covalent PQQ binding in the case of Tig, HtpG, MBP, RuvB, SurA, and PpiD
SurA
  +310 Da mass shift: covalent PQQ binding in the case of Tig, HtpG, MBP, RuvB, SurA, and PpiD

## CCO [ethanol]
PedH
  coupled colorimetric assay: Ethanol dehydrogenase activity of PedH reconstituted with PQQ or PQQ probes was measured
